These results are taken from patent US12264145B2, “Crystal form F of trelagliptin and preparation method thereof” (GUANGDONG UNIVERSITY OF TECHNOLOGY, priority 2023, dated 2025).

≈ marks a conversion by molar mass, not a printed value.

Holding throughout (type): physicochemical
Data set [1] in a line: Equilibrium solubility of trelagliptin crystal forms in different dissolution media (UV-vis at 279 nm). Conditions: for Solubility / solubility at 24 h: 24 h; for solubility at 24 h: 37 °C, thermodynamic from solid.
Data set [2] in a line: High-temperature stability test (XRPD). As to conditions: 60° C. for 10 d, XRPD on day 5 and day 10. As to the method: (§1) According to the Guidelines for Stability Tests of Active Pharmaceutical Ingredients (APIs) and Formulations, the stability of the novel crystal form F of trelagliptin was tested.
High-temperature test: The novel crystal form F of trelagliptin was spread in a petri dish and then placed in a drying oven at 60° C. for 10 d, where on day 5 and day 10, a sample was taken and subjected to XRPD analysis to determine whether the crystal form was stable.

Data set [3] in a line: High-humidity stability test (XRPD). Conditions: relative humidities of 90% and 75% at 25° C. for 10 d, XRPD on day 5 and day 10. The procedure:
as §1
High-humidity test: The novel crystal form F of trelagliptin was spread in petri dishes, and then the petri dishes were placed in constant-temperature and constant-humidity incubators respectively with relative humidities of 90% and 75% at 25° C. for 10 d, where on day 5 and day 10, a sample was taken and subjected to XRPD analysis to determine whether the crystal form was stable.

A short description of data set [4]: Strong light irradiation stability test (XRPD). As to conditions: illuminance 4500 lx±500 lx for 10 d, XRPD on day 5 and day 10. As to the method: as §1
Strong light irradiation test: The novel crystal form F of trelagliptin was spread in a petri dish and then placed in a strong light irradiation test chamber with illuminance of 4500 lx±500 lx for 10 d, where on day 5 and day 10, a sample was taken and subjected to XRPD analysis to determine whether the crystal form was stable.

Another data set is described as follows: Moisture absorption. Conditions: 80% RH, 25° C., 24 h. The procedure: The dried novel crystal form F of trelagliptin prepared in this example was spread in a weighing bottle, then placed in a constant-temperature and constant-humidity incubator with a humidity of 80% RH and a temperature of 25° C. for 24 h, and then weighed.

Regarding `Cn1c(=O)cc(N2CCC[C@@H](N)C2)n(Cc2cc(F)ccc2C#N)c1=O` [Crystal form F, trelagliptin], the Solubility in data set [1] (buffer solution pH = 1.2, 37° C.) was 73.61 mg/mL (≈ 206 mM); in data set [1] (buffer solution pH = 7.4, 37° C.) it was 30.54 mg/mL (≈ 85.5 mM); in data set [1] (sodium phosphate buffer solution pH = 6.8, 37° C.), 32.78 mg/mL (≈ 91.7 mM). This molecule also displayed a solubility at 24 h in data set [1] (deionized water, water) of 8.51 mg/mL (≈ 23.8 mM). Further, in data set [1] (deionized water, pH 6.8, pH 7.4 and pH 1.2 buffer solutions), the “Solubilities compared with the original crystal form I” value is reported as “significantly-higher solubilities”. In addition, the “Stability of the crystal form” value in data set [2], in data set [3] and in data set [4] was “no impact on the stability” in each case. Moreover, the “Weight gain (moisture absorption)” value in the data set “Moisture absorption” is reported as “less than 0.4%”.
Regarding `Cn1c(=O)cc(N2CCC[C@@H](N)C2)n(Cc2cc(F)ccc2C#N)c1=O` [Crystal form I, trelagliptin], the solubility at 24 h in data set [1] (buffer solution, pH 1.2, simulated gastric fluid, buffer solution pH = 1.2, 37° C.) is 42.7 mg/mL (≈ 119 mM).

As a reminder, the Solubility is the concentration that dissolves in the medium under given conditions. Higher therefore signals a readily soluble substance. What is called solubility is how much of the substance goes into solution per volume.
